From patent US12629370B2, “Treatment of prostate cancer” (Sumitomo Pharma Co., Ltd., priority 2016, dated 2026)
Values joined by “and” are separate entries in the source; they are usually repeats but may differ in a detail not shown here. Identical values can stand only once. “Also recorded” adds a separate entry of the source.

Experiments:
[1] = Example 6: plasma concentration of unchanged Compound 1 (LC-MS/MS); assay type: in vivo, human
Description: Subjects in Cohort 1 received a load dose of 320 mg and a maintenance dose of 80 mg; subjects in Cohort 2 received a load dose of 320 mg and a maintenance dose of 120 mg; subjects in Cohort 3 received a load dose of 320 mg and a maintenance dose of 160 mg; and subjects in Cohort 4 received a load dose of 360 mg and a maintenance dose of 120 mg.
In addition to the safety assessments, efficacy assessments were also performed according to the study schedule, and the Compound 1 formulation was administered until each subject met the discontinuation criteria.

[2] = Example 7: single and multiple dose pharmacokinetics and food effect in healthy men; assay type: in vivo, human; conditions: for half-life: read-out: mean plasma T1/2 (converted)
Description: Samples were analyzed using validated liquid chromatography with tandem mass spectrometry (LC/MS/MS) methods. The LLOQ was 0.0100 ng/ml for plasma and 0.500 ng/ml for urine.
Then, a formal assessment was performed using both analysis of variance (ANOVA) and power model approaches. […] In Part 2, steady state attainment was determined based on visual inspection of mean observed predose plasma concentration during multiple dosing (Ctrough) versus time profiles at each dose level. Noncompartmental analysis of Part 3 and 4 data were not planned given the limited number of postdose samples collected per subject on Days 1 and 28.

serum testosterone = experiment: Example 7: serum testosterone lowering in healthy men; assay type: in vivo, human; conditions: for mean serum testosterone at end of 16 days: baseline 10.40 nmol/L
Description: (§1) FSH, DHT, and insulin-like growth factor 1 (IGF-1; Parts 3 and 4 only) were measured in a subset of samples. Serum testosterone was assayed using a conventional immunoassay for screening (LLOQ=0.4 nmol/L). A validated LC/MS/MS method, with an LLOQ of 0.173 nmol/L and a ULOQ of 10.425 nmol/L, was used for all subsequent baseline (i.e., the subject's serum hormone levels prior to treatment commencing) and postdose measurements.
Pharmacodynamic measures included serum concentrations of testosterone, DHT, LH, and FSH. In Part 2, the number and percentage of subjects with average serum testosterone levels less than 0.69 nmol/L occurring during the second week of dosing were tabulated. In Parts 3 and 4, the number and percentage of subjects with serum testosterone levels consistently less than 0.69 nmol/L from Day 14 through Day 28 were tabulated.

serum FSH = experiment: Example 7: serum FSH in healthy men; assay type: in vivo, human
Description: as §1

FSH = experiment: Example 8: FSH levels; assay type: in vivo, human;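 note: FSH determined at every study visit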
Description: Patients on leuprorelin received their final injection at week 37, day 1, and the week 49, day 1 visit was considered the end of leuprorelin exposure. Patients receiving leuprorelin at visits at 16 (EOT), 20 (follow-up visit), and 24 (EOS) weeks after the last leuprorelin injection.
FSH levels were also measured at each visit.

FIG. 23 = experiment: FIG. 23
Text: Table printed on a drawing sheet, FIG. 23
First reader's note: The rows 'Plasma' and 'Urine' are section heads (matrix); the sheet explains neither the footnote marks a and b nor the values in brackets.

[3] = Compound 1 Total, Week 2, Day 1
[4] = Compound 1 Total, Week 5, Day 1
[5] = Compound 1 Total, Week 13, Day 1
[6] = Compound 1 Total, Week 25, Day 1
[7] = Compound 1 Total, Week 49, Day 1

## CONC(=O)Nc1ccc(-c2sc3c(c2CN(C)C)c(=O)n(-c2ccc(OC)nn2)c(=O)n3Cc2c(F)cccc2F)cc1 [Compound 1, N-(4-(1-(2,6-difluorobenzyl)-5-((dimethylamino)methyl)-3-(6-methoxy-3-pyridazinyl)-2,4-dioxo-1,2,3,4-tetrahydrothieno[2,3-d]pyrimidin-6-yl)phenyl)-N′-methoxyurea]
[1]; Part A Day 1, load dose 320 mg, across cohorts
  median Tmax: 1.5 h
[1]; Part A Days 14 and 28, 80 to 160 mg QD
  mean Cmax, Ctrough and mean plasma AUC24 versus dose: generally increased proportionately with dose
[1]; Part A Days 14 and 28, maintenance 80 to 160 mg QD
  median Tmax: 0.5 to 2.0 h
[1]; male, human, plasma, oral, Part A Day 1, load dose 320 mg, across cohorts, read-out: median Tmax
  Tmax: 1 h
[1]; male, human, plasma, oral, Part A Day 28, across cohorts, read-out: mean plasma T1/2
  half-life: 66.5 to 78.1 h
[2]; 180 mg single dose
  decrease in mean Cmax and mean plasma AUC0-∞ on co-administration with food versus fasting: approximately 50%
  median Tmax, fasting conditions: 1.75 h
[2]; 180 mg single dose, high fat breakfast
  median Tmax, fed conditions: 5.00 h
[2]; 180 mg, Part 2 Day 1 versus Part 1 fasted
  decrease in mean plasma AUC (systemic exposure), dosing 30 min before standardized meal versus fasted: approximately 28%
[2]; 20 to 180 mg QD
  dose proportionality of mean Cmax at steady state: increased slightly more than dose-proportionately
  dose proportionality of mean plasma AUC0-tau at steady state: increased in a dose-proportional manner
[2]; across all doses studied
  median Tmax: ~2 h
[2]; after single and repeat dosing
  Compound 1 excreted unchanged in urine: Less than 4%
[2]; male, human, plasma, oral, 180 mg single dose, high fat breakfast, read-out: median Tmax, fed conditions
  Tmax: 5 h
[2]; male, human, plasma, oral, across the 20 to 180 mg QD dose range
  half-life: 36 to 65 h
[2]; male, human, plasma, oral, repeat dosing, 20 mg QD
  half-life: 64.5 h
[2]; male, human, plasma, oral, repeat dosing, 180 mg QD
  half-life: 35.8 h
[2]; single doses of 80 mg to 360 mg
  dose proportionality of mean Cmax and mean plasma AUC0-∞: dosed proportionally over 80-360 mg range; also recorded: approximate dose-proportional increases
[2]; steady state
  increase in systemic exposure following QD dosing: approximately 2 fold
Serum testosterone; 20 mg QD, 14 days
  suppression of serum LH and testosterone during the second week: insufficient in maintaining adequate suppression
Serum testosterone; 40 mg QD, 28 days
  castration outcome: ineffective in maintaining castration between Days 14 and 28
Serum testosterone; 60 mg QD, 28 days
  castration outcome: intermediate to those of 40 and 80 mg
Serum testosterone; 80 mg once daily
  time to reach castrate level: up to 21 days
Serum testosterone; 320 mg day 1, 160 mg day 2, 40 mg day 3 to 28
  castration outcome: did not maintain castrate level
Serum testosterone; 360 mg Day 1 and 40 mg day 2 to 14
  castration outcome: rapid castration level and sustained castration level
Serum testosterone; 360 mg single dose
  time to castrate levels (<50 ng/dL): ≤ 24 h
Serum testosterone; 40 to 180 mg daily (14 days) and 80 to 160 mg daily (28 days)
  effective medical castration: consistently achieved
Serum testosterone; 14 days at 40, 80 and 180 mg
  profound castration threshold (average serum testosterone <0.69 nmol/L): achieved
Serum testosterone; 28 days, 160 mg (Part 3) and 80 mg (Part 4)
  castration during third and fourth weeks: effective at achieving medical (<1.73 nmol/L) and profound (<0.69 nmol/L) castration
Serum testosterone; Part 2, 80 mg
  mean serum testosterone at end of 16 days: 0.3565 nmol/L
Serum testosterone; Part 2, 180 mg
  mean serum testosterone at end of 16 days: 0.4320 nmol/L
Serum testosterone; in vivo
  minimal fully effective / recommended maintenance dose for sustained medical castration: ≥ 80 mg QD
Serum testosterone; maintenance doses of 80, 160 and 180 mg QD
  effective medical castration: consistently achieved
Serum testosterone; single doses of 80, 120, 180 and 360 mg
  duration of mean serum testosterone suppression: maintained through 36 hours postdose
Serum FSH; Part 1 single doses 80-360 mg
  time postdose at which mean serum FSH began to decrease: 2 h
  time postdose of lowest mean serum FSH: 48 h
Serum FSH; Part 2, 80 mg, baseline 6.07 IU/L
  mean serum FSH at end of 16 days: 0.67 IU/L
Serum FSH; Part 2, 180 mg, baseline 3.88 IU/L
  mean serum FSH at end of 16 days: 0.33 IU/L
FSH; 80 mg QD, Baseline
  FSH Mean (Std Dev): 14.729 (14.3473) IU/L
  FSH Median: 9.550 IU/L
FSH; 80 mg QD, Week 2, Day 1
  FSH Mean (Std Dev): 3.112 (3.0612) IU/L
  FSH Median: 2.100 IU/L
FSH; 80 mg QD, Week 5, Day 1
  FSH Mean (Std Dev): 1.248 (2.6737) IU/L
  FSH Median: 0.400 IU/L
FSH; 80 mg QD, Week 13, Day 1
  FSH Mean (Std Dev): 1.137 (2.4242) IU/L
  FSH Median: 0.500 IU/L
FSH; 80 mg QD, Week 25, Day 1
  FSH Mean (Std Dev): 1.090 (0.9932) IU/L
  FSH Median: 0.800 IU/L
FSH; 80 mg QD, Week 49, Day 1
  FSH Mean (Std Dev): 1.802 (1.3956) IU/L
  FSH Median: 1.450 IU/L
FSH; 120 mg QD, Baseline
  FSH Median: 11.050 IU/L
FSH; 120 mg QD, Week 2, Day 1
  FSH Mean (Std Dev): 3.183 (2.8956) IU/L
  FSH Median: 2.300 IU/L
FSH; 120 mg QD, Week 5, Day 1
  FSH Mean (Std Dev): 1.035 (1.0479) IU/L
  FSH Median: 0.600 IU/L
FSH; 120 mg QD, Week 13, Day 1
  FSH Mean (Std Dev): 0.908 (0.8104) IU/L
  FSH Median: 0.600 IU/L
FSH; 120 mg QD, Week 25, Day 1
  FSH Mean (Std Dev): 1.344 (0.9675) IU/L
  FSH Median: 1.200 IU/L
FSH; 120 mg QD, Week 49, Day 1
  FSH Mean (Std Dev): 1.938 (1.2169) IU/L
  FSH Median: 1.600 IU/L
FSH; 120 mg dose, >10 mIU/mL at baseline
  FSH range over the course of 48 weeks: 0.6-1.6 mIU/mL
FSH; Compound 1 Total, Baseline
  FSH Mean (Std Dev): 15.269 (13.5920) IU/L
  FSH Median: 9.850 IU/L
FSH; [3]
  FSH Mean (Std Dev): 3.147 (2.9653) IU/L
  FSH Median: 2.150 IU/L
FSH; [4]
  FSH Mean (Std Dev): 1.143 (2.0379) IU/L
  FSH Median: 0.550 IU/L
FSH; [5]
  FSH Mean (Std Dev): 1.025 (1.8164) IU/L
  FSH Median: 0.500 IU/L
FSH; [6]
  FSH Mean (Std Dev): 1.215 (0.9838) IU/L
  FSH Median: 0.900 IU/L
FSH; [7]
  FSH Mean (Std Dev): 1.867 (1.3077) IU/L
  FSH Median: 1.500 IU/L
FSH; after 48 weeks of treatment
  median FSH: 1.62 mIU/mL
FIG. 23
  CLr (L/h): 6.92 (29.5) L/h and 5.51 (26.7) L/h and 6.42 (25.0) L/h and 7.66 (17.4) L/h and 7.43 (16.2) L/h
  Fe (%): 1.44 (31.8) % and 1.35 (40.0) % and 1.76 (38.6) % and 1.89 (20.2) % and 2.88 (45.6) %
  t1/2(h): 50.6 (20.2) h and 49.4 (30.6) h and 36.5 (17.4) h
